Experiments:
[1] = Pharmacokinetic test on rats; type: in vivo, rat; conditions: male SD rats; for t1/2: data based on free base
Method: Male SD rats were fasted for 12 h before the test and then allowed to drink water freely. The compound (+)—I-3 p-toluenesulfonate or (+)—I-4 p-toluenesulfonate of the present application was dissolved with a 10% distilled water solution of 1,2-propanediol and then administered orally or intravenously to the male SD rats, with 3 rats in each group. At 15 min, 30 min, 1 hour, 2 hours, 3 hours, 4 hours, 6 hours, 8 hours and 24 hours after the oral administration or at 5 min, 15 min, 30 min, 1 hour, 2 hours, 3 hours, 4 hours, 6 hours, 8 hours and 24 hours after the intravenous administration, 0.2 mL of blood was taken from retroocular venous plexuses, placed in an EDTA-K2 test tube, centrifuged at 11,000 rpm for 5 min to separate plasma, and frozen in a refrigerator at −20° C. The concentration of a drug prototype was determined by HPLC-ESI-MS according to a verified method, and pharmacokinetic parameters were calculated by WinNonLin.

[2] = target: T1, human recombinant calcium ion channel Cav2.2/β3/α2δ-1 (Homo sapiens, UniProt P54289); experiment: In vitro binding to human recombinant calcium ion channel Cav2.2/β3/α2δ-1 ([3H]gabapentin competition)
T1 construct: expressed in transfected cells; host or cells: CHO cells (membranes)
Excerpt: Example 28 In Vitro Binding of Compounds to Human Recombinant Calcium Ion Channel Cav2.2/β3/α2δ-1
There are four subtypes of the voltage-gated calcium ion channel α2δ subunit, α2δ-1, α2δ-2, α2δ-3 and α2δ-4, in which α2δ-1 is the subtype that mediates chronic neuropathic pain (Field, M. J. et al.; Proc. Natl. Acad. Sci. U.S.A. 2006, 103, 17537-17542). Therefore, the binding strength of a compound to α2δ-1 is a direct indicator for measuring an analgesic effect thereof on the chronic neuropathic pain (Calandre, E. P. et al.; Expert Rev. Neuroether. 2016, 16, 1263-1277).
The in vitro binding strength of the compound of the present application to human recombinant calcium ion channel Cav2.2/β3/α2δ-1 is basically operated according to a reported method (Gee, N. S. et al.; J. Biol. Chem. 1996, 271, 5768-5776; Marais, E. et al.; Mol. Pharmacol. 2001, 59, 1243-1248). CHO cells expressing the human recombinant calcium ion channel Cav2.2/β3/α2δ-1 were used in the test. After routine separation of cell membranes, 3 μg of the cell membranes were added into each well with a modified HEPES/KOH buffer solution (pH 7.4) as a solution of the test system. Then, 5 nM [^3H]gabapentin and the compound to be tested at 6 concentrations (3, 9, 27, 81, 243, and 729 nM) were added, and the test system was incubated at 25° C. for 120 min. Non-specific binding was obtained by replacing the compound to be tested in the above test system with […] gabapentin. After the incubation was completed, the cell membranes were collected by filtration and washed with 50 mM Tris-HCl (pH 7.4), and then the radioactivity of [^3H]gabapentin bound to the cell membranes was tested by a liquid scintillation technology. […] An inhibition rate of the compound of the present application on the binding of the [^3H]gabapentin to the human recombinant calcium ion channel Cav2.2/β3/α2δ-1 was calculated according to the following formula: […]
wherein • I is the radioactivity corresponding to that the compound to be tested and [^3H]gabapentin are simultaneously co-incubated with the human recombinant calcium ion channel Cav2.2/β3/α2δ-1, • I0 is the radioactivity corresponding to co-incubation of [^3H]gabapentin and the human recombinant calcium ion channel Cav2.2/β3/α2δ-1 without adding the compound to be tested into the incubation system, and • IU is the radioactivity corresponding to that 10 μM gabapentin and [^3H]gabapentin are simultaneously co-incubated with the human recombinant calcium ion channel Cav2.2/β3/α2δ-1.
The concentration of the compound to be tested that inhibits 50% of the binding of [^3H]gabapentin to the human recombinant calcium ion channel Cav2.2/β3/α2δ-1 is defined as IC50, and the IC50 is calculated by nonlinear least squares regression analysis using the above inhibition rate (MathIQ™, ID Business Solutions Ltd., UK).

[3] = system: postherpetic neuralgia; conditions: 150-600 mg per day; cited from earlier work
[4] = gavage vs intravenous injection
[5] = intravenous injection, 1.10 / 1.09 mg/kg

T1 sequence (P54289 25-956 limits assumed): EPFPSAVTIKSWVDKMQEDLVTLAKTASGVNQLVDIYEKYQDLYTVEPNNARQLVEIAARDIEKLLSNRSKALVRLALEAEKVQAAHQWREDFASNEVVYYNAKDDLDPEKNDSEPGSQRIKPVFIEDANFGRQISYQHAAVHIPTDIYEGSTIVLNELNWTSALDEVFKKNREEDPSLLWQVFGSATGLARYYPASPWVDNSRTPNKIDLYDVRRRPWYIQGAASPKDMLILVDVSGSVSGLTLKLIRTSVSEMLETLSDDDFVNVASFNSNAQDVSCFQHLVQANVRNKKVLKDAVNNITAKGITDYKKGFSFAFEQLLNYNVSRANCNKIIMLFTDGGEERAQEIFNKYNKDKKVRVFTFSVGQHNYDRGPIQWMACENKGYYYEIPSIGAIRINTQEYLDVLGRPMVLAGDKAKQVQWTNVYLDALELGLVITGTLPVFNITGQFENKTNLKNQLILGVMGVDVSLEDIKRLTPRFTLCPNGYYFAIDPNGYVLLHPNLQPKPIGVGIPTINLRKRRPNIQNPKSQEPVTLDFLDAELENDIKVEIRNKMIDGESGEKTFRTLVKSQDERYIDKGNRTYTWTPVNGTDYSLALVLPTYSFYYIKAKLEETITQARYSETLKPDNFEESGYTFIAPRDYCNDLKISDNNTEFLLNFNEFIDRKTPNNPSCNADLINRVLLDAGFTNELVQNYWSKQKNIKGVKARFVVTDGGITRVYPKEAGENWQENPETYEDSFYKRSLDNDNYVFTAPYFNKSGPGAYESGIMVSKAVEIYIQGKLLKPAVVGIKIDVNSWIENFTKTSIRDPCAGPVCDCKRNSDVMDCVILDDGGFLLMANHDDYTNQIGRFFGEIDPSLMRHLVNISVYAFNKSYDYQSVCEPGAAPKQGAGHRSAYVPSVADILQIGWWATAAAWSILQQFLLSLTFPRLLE
T1 sequence (P54289 957-1103 partner limits assumed): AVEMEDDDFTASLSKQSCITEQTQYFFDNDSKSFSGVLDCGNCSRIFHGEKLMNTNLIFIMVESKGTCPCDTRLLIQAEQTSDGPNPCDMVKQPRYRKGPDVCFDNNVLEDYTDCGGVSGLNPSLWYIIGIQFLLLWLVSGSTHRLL
T1 sequence (Q00975 whole entry partner): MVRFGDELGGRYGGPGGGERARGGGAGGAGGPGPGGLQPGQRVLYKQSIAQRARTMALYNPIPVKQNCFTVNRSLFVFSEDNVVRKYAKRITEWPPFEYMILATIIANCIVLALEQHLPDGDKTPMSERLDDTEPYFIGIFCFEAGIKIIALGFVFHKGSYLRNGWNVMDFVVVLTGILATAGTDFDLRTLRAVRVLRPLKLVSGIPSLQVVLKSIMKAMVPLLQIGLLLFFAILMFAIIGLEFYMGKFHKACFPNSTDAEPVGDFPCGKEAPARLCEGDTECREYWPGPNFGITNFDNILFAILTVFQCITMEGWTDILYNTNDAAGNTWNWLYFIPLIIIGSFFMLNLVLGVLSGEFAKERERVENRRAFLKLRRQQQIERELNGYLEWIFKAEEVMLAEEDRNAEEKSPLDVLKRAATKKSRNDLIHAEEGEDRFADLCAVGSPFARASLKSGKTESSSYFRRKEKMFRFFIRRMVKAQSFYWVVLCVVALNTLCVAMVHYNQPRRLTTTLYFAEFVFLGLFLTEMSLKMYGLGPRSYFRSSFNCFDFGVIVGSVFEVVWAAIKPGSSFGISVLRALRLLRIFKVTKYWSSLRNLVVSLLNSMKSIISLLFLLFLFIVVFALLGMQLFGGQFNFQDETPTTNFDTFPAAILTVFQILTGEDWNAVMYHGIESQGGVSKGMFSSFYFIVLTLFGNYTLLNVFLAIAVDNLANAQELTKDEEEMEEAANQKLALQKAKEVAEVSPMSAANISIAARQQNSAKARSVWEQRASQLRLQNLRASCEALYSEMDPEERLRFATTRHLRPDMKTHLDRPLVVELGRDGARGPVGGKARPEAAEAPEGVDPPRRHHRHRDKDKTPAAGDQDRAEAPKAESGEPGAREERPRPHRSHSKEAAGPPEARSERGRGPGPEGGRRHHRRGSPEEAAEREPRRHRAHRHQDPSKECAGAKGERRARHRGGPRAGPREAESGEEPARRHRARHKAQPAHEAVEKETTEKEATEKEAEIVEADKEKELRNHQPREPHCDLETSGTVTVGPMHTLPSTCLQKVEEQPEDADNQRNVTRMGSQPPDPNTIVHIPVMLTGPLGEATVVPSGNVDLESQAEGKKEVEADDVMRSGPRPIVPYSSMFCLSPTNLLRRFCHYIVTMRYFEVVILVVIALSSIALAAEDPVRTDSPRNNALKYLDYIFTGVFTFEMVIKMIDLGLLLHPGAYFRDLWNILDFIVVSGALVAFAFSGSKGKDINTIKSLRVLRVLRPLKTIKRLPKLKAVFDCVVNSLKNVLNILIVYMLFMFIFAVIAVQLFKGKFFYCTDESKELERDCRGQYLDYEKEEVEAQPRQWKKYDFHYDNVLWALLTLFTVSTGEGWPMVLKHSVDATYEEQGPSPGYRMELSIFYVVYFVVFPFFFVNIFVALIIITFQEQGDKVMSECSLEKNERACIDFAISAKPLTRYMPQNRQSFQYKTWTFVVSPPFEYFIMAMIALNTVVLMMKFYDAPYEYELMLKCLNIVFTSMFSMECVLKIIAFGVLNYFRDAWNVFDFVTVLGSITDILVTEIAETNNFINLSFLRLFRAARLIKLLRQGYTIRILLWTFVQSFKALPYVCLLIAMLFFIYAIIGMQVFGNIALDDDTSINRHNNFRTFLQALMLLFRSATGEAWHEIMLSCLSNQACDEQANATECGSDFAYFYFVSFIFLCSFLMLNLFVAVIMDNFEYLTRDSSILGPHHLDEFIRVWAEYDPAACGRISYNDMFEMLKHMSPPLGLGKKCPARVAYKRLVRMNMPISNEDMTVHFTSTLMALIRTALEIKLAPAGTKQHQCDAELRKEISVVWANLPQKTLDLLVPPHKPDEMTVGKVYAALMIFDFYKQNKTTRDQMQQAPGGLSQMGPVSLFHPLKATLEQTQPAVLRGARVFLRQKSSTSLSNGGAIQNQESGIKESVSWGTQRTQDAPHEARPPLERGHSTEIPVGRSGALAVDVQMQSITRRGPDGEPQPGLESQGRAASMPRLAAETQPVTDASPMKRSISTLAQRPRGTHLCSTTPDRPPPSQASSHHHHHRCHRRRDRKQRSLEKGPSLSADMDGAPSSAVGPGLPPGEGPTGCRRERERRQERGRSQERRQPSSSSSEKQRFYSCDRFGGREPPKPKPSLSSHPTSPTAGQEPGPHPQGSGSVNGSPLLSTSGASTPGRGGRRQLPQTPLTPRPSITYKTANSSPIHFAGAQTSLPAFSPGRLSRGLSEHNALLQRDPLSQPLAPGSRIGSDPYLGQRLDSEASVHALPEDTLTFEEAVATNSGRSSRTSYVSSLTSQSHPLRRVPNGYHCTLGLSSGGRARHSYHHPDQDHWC
T1 sequence (P54284 whole entry partner): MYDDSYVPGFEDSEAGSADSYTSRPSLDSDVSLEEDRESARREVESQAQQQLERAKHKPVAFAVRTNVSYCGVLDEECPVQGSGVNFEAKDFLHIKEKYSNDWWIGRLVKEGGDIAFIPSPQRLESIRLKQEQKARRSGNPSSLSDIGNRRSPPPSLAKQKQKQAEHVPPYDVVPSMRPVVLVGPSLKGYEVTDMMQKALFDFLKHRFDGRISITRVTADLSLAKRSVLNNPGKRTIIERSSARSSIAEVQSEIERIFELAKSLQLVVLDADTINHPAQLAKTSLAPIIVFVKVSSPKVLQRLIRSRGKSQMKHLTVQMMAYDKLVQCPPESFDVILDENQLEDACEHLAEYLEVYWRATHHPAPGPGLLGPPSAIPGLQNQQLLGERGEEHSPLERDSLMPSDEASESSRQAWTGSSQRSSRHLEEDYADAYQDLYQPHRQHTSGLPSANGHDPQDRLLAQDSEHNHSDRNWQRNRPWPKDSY

Row | SMILES | F (%) calculated based on AUC0-t [1, 4] | F (%) calculated based on AUC0-∞ [1, 4] | t1/2 ([1]; gavage, 2.74 mg/kg ((+)-I-3) / 2.73 mg/kg ((+)-I-4)) [h] | AUC0-t ([1]; gavage, 2.74 / 2.73 mg/kg) [ng·h/mL] | AUC0-∞ ([1]; gavage, 2.74 / 2.73 mg/kg) [ng·h/mL] | Cmax ([1]; gavage, 2.74 / 2.73 mg/kg) [ng/mL] | MRT0-∞ ([1]; gavage, 2.74 / 2.73 mg/kg) [h] | Tmax ([1]; gavage, 2.74 / 2.73 mg/kg) [h] | t1/2 ([1]; intravenous injection, 1.10 mg/kg ((+)-I-3) / 1.09 mg/kg ((+)-I-4)) [h] | AUC0-t [1, 5] [ng·h/mL] | AUC0-∞ [1, 5] [ng·h/mL] | MRT0-∞ [1, 5] [h] | IC50 [2] [nM] | clinical effective rate [3]
1 | Cc1ccc(S(=O)(=O)O)cc1.NCC1(CC(=O)O)CC2C3C=CC(C3)C21 (single isomer, unassigned; (+)) [(+)-I-4 p-toluenesulfonate] | 110.25% (calculated | 110.36% (calculated | 1.08 | 7290 | 7380 | 2350 | 2.38 | 1 | 0.94 | 2640 | 2670 | 1.63 |  | 
2 | CC(C)C[C@H](CN)CC(=O)O [Pregabalin] |  |  |  |  |  |  |  |  |  |  |  |  | 38 | 26%-50

Source: US20260174682A1, “GAMMA-AMINOBUTYRIC ACID DERIVATIVE COMPRISING POLYCYCLIC STRUCTURE, METHOD FOR PREPARING SAME, AND USE THEREOF” (ZHONGSHAN INSTITUTE FOR DRUG DISCOVERY, SIMM, CAS., priority 2022, published 2026)
